{
  "source": "patent US4339426A",
  "about": "“Bleomycin analog” (Regents of the University of California, priority 1980, dated 1982)",
  "key": {"VX2 adenocarcinomas": {"tested_on": "VX2 adenocarcinomas", "assay": "Tumor localization scans in rabbits bearing VX2 adenocarcinomas", "type": "in vivo, white rabbits", "settings": "for concentration of radioactivity in kidneys and bladder: two hours after injection", "protocol": "Solutions of the indium-111 chelates of BLEDTA (A) or BLEDTA (B) were injected into the ear veins of white rabbits bearing type VX2 adenocarcinomas implanted under the right foreleg and the right hind leg. Two hours after injection, and again 18 to 24 hours after injection, the rabbits were scanned with a gamma camera, which provides a two-dimensionaldisplay of the distribution of radioactivity in the body. Scans were obtained 24 hours after injection of 700 μCi of ^111 In-BLEDTA(A)."}, "KHJJ tumor": {"tested_on": "KHJJ tumor", "assay": "Organ distribution and tumor uptake of 111In-BLEDTA(B) in BALB/c mice with KHJJ tumor (Table II)", "type": "in vivo", "protocol": "The two bleomycin analogs-BLEDTA(A) and (B)-were rapidly and specifically labelled with ^111 In^3.spsp.+. A small aliquot of a dilute solution (10^-4 M) of BLEDTA(A) and (B) respectively in 0.1 M citrate (pH 2.8) was added to a container of dry ^111 InCl3, and incubated for 5 minutes at room temperature. The solutions were then diluted with normal saline solution for injection.\nFollowing the injection of ^111 In-BLEDTA(B) into the tail veins of specially prepared BALB/c mice, the organ distribution and tumor uptake of radioactivity were determined. A tumor line, \"KHJJ\", derived from a primary mammary carcinoma arising in a mouse and maintained for over 100 transplant generations was used for the assay. Transplantation was by subcutaneous implantation of tumor fragments about 1 mm in diameter into the flank. The studies were carried out after 14 days of growth, when the tumor had reached a size of about 1 cm^3. On histological examination,the tumor has a \"carcinoma-like\" pattern with a predominance of islands of round or polygonal malignant cells with little stroma and a generally undifferentiated appearance. After transplantation, the tumor takes in almost all animals and grows without metastasizing or killing the mice within 14 days.\n[…] After 18 hours, each mouse was anesthetized with ether, and blood was collected from the jugular vein into two preweighed capillary tubes. The mouse then was killed instantly by cervical dislocation and the major organs excised. Samples of muscle, skin, bone (left femur plus marrow), tail, and tumor also were taken. All tissue samples were weighed immediately after excision and counted in a well-type scintillation counter."}, "[1]": {"settings": "Table II, BLEDTA B 18 hours after tail vein injection"}, "[2]": {"settings": "24 hours after injection of 700 μCi"}},
  "data": [
    {"smiles": "Cc1c(N)nc(C(CC(N)=O)NCC(N)C(N)=O)nc1C(=O)NC(C(=O)NC(C)C(O)C(C)C(=O)NC(C(=O)NCCc1nc(-c2nc(C(=O)NCCCSCC(=O)Nc3ccc(C(CN(CC(=O)O)CC(=O)O)N(CC(=O)O)CC(=O)O)cc3)cs2)cs1)C(C)O)C(OC1OC(CO)C(O)C(O)C1OC1OC(CO)C(O)C(OC(N)=O)C1O)c1cnc[nH]1", "note": "(stereo not drawn) [BLEDTA(B)]", "values": [
      {"measurement": "concentration of radioactivity in kidneys and bladder", "setting": "VX2 adenocarcinomas", "result": "high concentrations of radioactivity in the kidneys and bladder"},
      {"measurement": "uptake of radioactivity in liver and bone", "setting": "KHJJ tumor; 18 hours", "result": "quite low"},
      {"measurement": "Distribution and uptake: Blood", "setting": "KHJJ tumor; [1]", "result": ".205 ± .066 % of injected radioactivity pe"},
      {"measurement": "Distribution and uptake: Bone", "setting": "KHJJ tumor; [1]", "result": ".188 ± .080 % of injected radioactivity pe"},
      {"measurement": "Distribution and uptake: Kidneys", "setting": "KHJJ tumor; [1]", "result": "1.023 ± .333 % of injected radioactivity pe"},
      {"measurement": "Distribution and uptake: Liver", "setting": "KHJJ tumor; [1]", "result": ".263 ± .068 % of injected radioactivity pe"},
      {"measurement": "Distribution and uptake: Lungs", "setting": "KHJJ tumor; [1]", "result": ".254 ± .067 % of injected radioactivity pe"},
      {"measurement": "Distribution and uptake: Muscle", "setting": "KHJJ tumor; [1]", "result": ".063 ± .015 % of injected radioactivity pe"},
      {"measurement": "Distribution and uptake: Skin", "setting": "KHJJ tumor; [1]", "result": ".166 ± .052 % of injected radioactivity pe"},
      {"measurement": "Distribution and uptake: Spleen", "setting": "KHJJ tumor; [1]", "result": ".327 ± .088 % of injected radioactivity pe"},
      {"measurement": "Distribution and uptake: Tumor", "setting": "KHJJ tumor; Table II, KHJJ tumor, BLEDTA B 18 hours after tail vein injection", "result": ".393 ± .015 % of injected radioactivity pe"},
      {"measurement": "tumor/organ radioactivity concentration ratios", "setting": "KHJJ tumor; all organs examined except the kidneys", "result": "Favorable"}
    ]},
    {"smiles": "Cc1c(N)nc(C(CC(N)=O)NCC(N)C(N)=O)nc1C(=O)NC(C(=O)NC(C)C(O)C(C)C(=O)NC(C(=O)NCCc1nc(-c2nc(C(=O)NCCC[S+](C)CC(=O)Nc3ccc(C(CN(CC(=O)O)CC(=O)O)N(CC(=O)O)CC(=O)O)cc3)cs2)cs1)C(C)O)C(OC1OC(CO)C(O)C(O)C1OC1OC(CO)C(O)C(OC(N)=O)C1O)c1cnc[nH]1", "note": "(stereo not drawn) [BLEDTA(A)]", "values": [
      {"measurement": "visualization of small tumor 1 cm in diameter under right foreleg", "setting": "VX2 adenocarcinomas; [2]", "result": "clearly visualized"},
      {"measurement": "visualization of tumor 2 to 3 cm in diameter under right hind leg", "setting": "VX2 adenocarcinomas; [2]", "result": "strikingly evident"},
      {"measurement": "concentration of radioactivity in kidneys and bladder", "setting": "VX2 adenocarcinomas", "result": "high concentrations of radioactivity in the kidneys and bladder"}
    ]}
  ]
}
